Reference: US9968646B2, “Method for treatment of prostatic hyperplasia and/or ameliorating urinary disturbance with banana flower extract” (TCI Co., Ltd., priority 2014, dated 2018)

Tests used:
[1] = tested on: LNCap human prostate cancer cell lines; test: MTT survival rate of LNCap cells stimulated by testosterone; assay type: cell-based
Experimental: In one embodiment, LNCap human prostate cancer cell lines (BCRC 60088) purchased from Bioresource Collection and Research Center (BCRC) are used. 2×10^4 LNCap cells/well are placed in the 96-well plate and cultured for 24 hr. LNCap cells treated with testosterone and various concentrations (0.5 mg/mL and 2.0 mg/mL) of the banana flower extract, and co-cultured for 3 days. LNCap cells are treated with the banana flower extract without testosterone as negative control, and LNCap cells are treated with testosterone without the banana flower extract as vehicle control. The survival rate of LNCap cells is evaluated using the MTT assay, LNCap cells are treated with 1 mg/mL MTT (3-[4,5-dimethyl thiazol-2-yl]-2,5diphenyl tetrazolium bromide) for 2 hr, and dimethyl sulfoxide (DMSO) is added to dissolve blue formazan crystals. An absorbance is measured using a reader at the wavelength of 570 nm.

[2] = tested on: dihydrotestosterone synthesis in LNCap cells; test: Dihydrotestosterone level (ELISA) in LNCap cells stimulated by testosterone; assay type: cell-based, human; settings: co-treatment of testosterone and 0.2 mg/mL finasteride; testosterone alone = 100%
Experimental: 1×10^5 LNCap cells/well are cultured with RPMI 1640 containing 10% FBS and 1% sodium pyruvate in 9-cm culture plate for 36 hr. […] And all LNCap cells are stimulated by 10 μg/mL testosterone.
Cell lysis is processed prior to analysis of dihydrotestosterone level: LNCap cells are dispersed with typsin and centrifuged to collect the suspension cells, the suspension cells are washed with cold PBS, and the suspension cells are resuspended in PBS(1×) and sonicated 4 times; or LNCap cells are frozen at −20° C. or lower, and stirred frequently until thawed for 3 times to destroy cells. The destroyed cells are centrifuged at 150× g at 2-8° C. for 10 min to remove the cell debris. Finally, dihydrotestosterone ELISA Kit (Uscn Life science Inc.) is used to detect dihydrotestosterone level.
LNCap cells are treated with the banana flower extract of the present invention and testosterone as above-mentioned method, LNCap cells treated with the banana flower extract without testosterone as negative control, and LNCap cells treated with testosterone without the banana flower extract as vehicle control, are detected dihydrotestosterone level. […] As co-treating with testosterone and the banana flower extract (2 mg/mL), the dihydrotestosterone synthesis rate of LNcap cells is decreased about 30%. […]

| SMILES | survival rate of LNcap cells ([1]; testosterone alone, without testosterone = 100%) | reduction of dihydrotestosterone synthesis rate [2] [%] | LNcap cell proliferation stimulated by testosterone ([1]; co-treatment of testosterone and 0.2 mg/mL finasteride) |
| --- | --- | --- | --- |
| C[C@]12CC[C@H]3[C@@H](CCC4=CC(=O)CC[C@@]43C)[C@@H]1CC[C@@H]2O [testosterone] | about 110% | – | – |
| CC(C)(C)NC(=O)[C@H]1CC[C@H]2[C@@H]3CC[C@H]4NC(=O)C=C[C@]4(C)[C@H]3CC[C@]12C [finasteride] | – | 10 | slightly inhibit |
